# Test system: yeast MATa/sst1Δ strain EY957
# Test: Yeast cell arrest (halo) assay
# Type: cell-based
# From the text: The mature wild-type α-Factor peptide is a 13 amino acid pheromone secreted by type […] yeast cells, which upon binding to the α-Factor receptor transmits a signal to an internally located G-protein. Once activated, this G protein triggers a series of intracellular events which lead to cellular differentiation (Elion et al., Cell, 60:649-664 (1990)). In the presence of external α-Factor, yeast cells in the early G1 phase of growth will undergo cell cycle arrest. The bioactivity of each recombinant α-Factor could easily be determined in halo assays as a region of low cell density surrounding a central disk spotted with α-Factor (FIG. 5).
# Lawns of yeast MATa/sst1Δ strain EY957 were grown on YPD plates and were tested for α-Factor sensitivity as previously described (Elion et al., Cell, 60:649-664 (1990)). α-Factor peptides were dissolved in DMSO and spotted on sterile 6.5 mm paper disks. Peptide amounts were as follows: Wild-type α-Factor (αFWT)-595 pmoles; αI13-homoserine-lactone (αI13-HSl)-6,850 pmoles; αI13-homoserine (αI13-HS)-1,130 pmoles; αI13-homoserine-amide (αI13-HSA)-2,820 pmoles. The zones of inhibition (z.o.i.) for each peptide is the diameter of the low cell density region. […]
# ^c The zone of inhibition in mm (z.o.i.) was measured for each series […]
sequence,measurement,setting,value
"WHWLQLKPGQPMY [αFWT, Wild-type α-factor from Sigma, 13 amino acid yeast pheromone, reference compound]",CA50 (cell arrest50),amount of peptide per disk required to cause 50% of cell arrest,74 ± 5 pmol
same,z.o.i.int (y-intercept of upper asymptote of zone of inhibition curve),"relative maximal effect, z.o.i. vs pmoles spotted per 6.5 mm disk",29 mm

# From patent US5648244A, “Production, purification, cleavage and use of fusion peptides” (President and Fellows of Harvard College, priority 1993, dated 1997)
